Laboratory results published in PMC8258866 (Journal of medicinal chemistry, 2020).
pIC50, pKd: −log10 of the molar value.

What was measured:
Kinetic solubility = format: physicochemical; conditions: 27 tested as HCl salt; for solubility: PBS, pH 7.4, solubility (PBS, pH 7.4)
MCF-7:CFR cells [1] = assay: 3 h treatment and washout study in MCF-7:CFR cells; format: cell-based; conditions: media replaced after 3 h, viability after 5 days
MCF7:CFR 3D spheroids = assay: 3D-spheroid growth assay; format: cell-based; conditions: 100 nM; cell viability at day 9
[2] = system: MCF-7:WS8, MCF-7:5C, MCF-7:TAM1, T47D, T47D/TDG, MCF-7:CPR, MCF-7:CFR cells; assay: Cell growth assay across ER+ breast cancer cell lines; format: cell-based; conditions: read-out: IC50 across all cell lines
Mouse pharmacokinetics = format: in vivo, CD1 mice; conditions: iv 5 mg/kg, mice, HCl salt
BET family proteins = assay: BROMOscan bromodomain profiling, BET family; format: binding; conditions: across BET family proteins
MCF-7:Tam1 tumors = assay: MCF-7:TAM1 xenograft, combination with fulvestrant; format: in vivo, athymic nude mice; conditions: 4 weeks
MCF-7:CFR cells [3] = assay: Cell growth assay in fulvestrant-resistant MCF-7:CFR 2D cultures; format: cell-based; conditions: MCF-7:CFR growth inhibition
[4] = system: tamoxifen-resistant MCF-7:TAM1 cell-derived xenograft; assay: MCF-7:TAM1 xenograft, monotherapy; format: in vivo

Work on `CC(=O)[C@H]1CC[C@H]2[C@@H]3CCC4=CC(=O)CC[C@]4(C)[C@H]3CC[C@]12C` [progesterone, reference compound] yielded a solubility (Kinetic solubility) of 22.4 µM.

In the case of `Cc1sc2c(c1C)C(c1ccc(Cl)cc1)=N[C@@H](CC(=O)OC(C)(C)C)c1nnc(C)n1-2` [Compound 1, reference compound], the “efficacy after drug washout” value (MCF-7:CFR cells [1]) was “no significant efficacy at <300 nM” and the “effect on MCF-7:CFR 3D spheroid growth/viability” value (MCF7:CFR 3D spheroids) was “significantly inhibited growth”.

With `CC/C(=C(\c1ccc(O)cc1)c1ccc(OCCN(C)C)cc1)c1ccccc1` [4-hydroxytamoxifen] the “effect on MCF-7:CFR 3D spheroid growth/viability” value (MCF7:CFR 3D spheroids) was “Neither 4-hydroxytamoxifen (4OHT) nor fulvestrant inhibited MCF-7:CFR cell growth”.

In the case of `CCS(=O)(=O)Nc1cc(-c2cn(C)c3c(=O)[nH]ccc23)cc2c1ccn2C(C)(c1ccccn1)c1ccccn1` [Compound 27, N-(1-(1,1-Di(pyridin-2-yl)ethyl)-6-(1-methyl-7-oxo-6,7-dihydro-1H-pyrrolo[2,3-c]pyridin-3-yl)-1H-indol-4-yl)-ethanesulfonamide], the pIC50 [2] was over 8.00, the Cl (Mouse pharmacokinetics) was 25.5 (mL/min)/kg and the pKd (BET family proteins) was over 9.00. For the same molecule, the “solubility (PBS, pH 7.4)” value (Kinetic solubility) was 73.43 μM, the solubility (Kinetic solubility) was 73.4 µM and the “efficacy after drug washout” value (MCF-7:CFR cells [1]) was “only slightly diminished”. The “tumor growth inhibition versus vehicle control” value (MCF-7:Tam1 tumors; 30 mg/kg po in combination with fulvestrant sc 1 (mg/mouse)/week) was “comparable and significant tumor growth inhibition”, the “cellular potency over JQ1” value (MCF-7:CFR cells [3]) was over 100 fold and the “effect on animal body weight” value ([4]; 50 (mg/kg)/day po, 4 weeks) was “without any effect on animal body weight”. For the same molecule, the “overt signs of toxicity” value ([4]; once daily administration for 4 weeks) was “no overt signs of toxicity” and the “effect on MCF-7:CFR 3D spheroid growth/viability” value (MCF7:CFR 3D spheroids) was “complete loss of spheroid viability”.

With `COc1nnc2ccc(N3CCC(c4ccc(OCCN5CCN(C)C(=O)[C@H]5C)cc4)CC3)nn12` [Compound 5, (3R)-4-[2-[4-[1-(3-Methoxy-[1,2,4]-triazolo[4,3-b]pyridazin-6-yl)-4-piperidyl]phenoxy]ethyl]-1,3-dimethyl-piperazin-2-one] the “effect on MCF-7:CFR 3D spheroid growth/viability” value (MCF7:CFR 3D spheroids) was “significantly inhibited growth”.

In the case of `C[C@]12CC[C@@H]3c4ccc(O)cc4C[C@@H](CCCCCCCCC[S+]([O-])CCCC(F)(F)C(F)(F)F)[C@H]3[C@@H]1CC[C@@H]2O` (stereo partly shown) [fulvestrant], the “effect on MCF-7:CFR 3D spheroid growth/viability” value (MCF7:CFR 3D spheroids) was “Neither 4-hydroxytamoxifen (4OHT) nor fulvestrant inhibited MCF-7:CFR cell growth”.

With `CCNC(=O)C[C@@H]1N=C(c2ccc(Cl)cc2)c2cc(OC)ccc2-n2c(C)nnc21` [Compound 2, reference compound] the “tumor growth inhibition versus vehicle control” value (MCF-7:Tam1 tumors; 50 mg/kg po in combination with fulvestrant sc 1 (mg/mouse)/week) was “comparable and significant tumor growth inhibition”.

In the case of `CC/C(=C(\c1ccccc1)c1ccc(OCCN(C)C)cc1)c1ccccc1` [tamoxifen, reference compound], the “effect on tumor growth relative to vehicle control” value ([4]; 1.5 mg/mouse/day po, day 28) was “no significant effect on tumor growth”.
